Source: US20210252159A1, “CONJUGATES OF CARTILAGE-HOMING PEPTIDES” (priority 2018, published 2021)
Where two headings read alike, the source gives them in different places.

Tests used:
IL-6 = conditions: 30 or 3 μg, 4 h
Method: After 4 h, IL-6 levels in synovial fluid of the same knee were measured by Luminex and normalized to protein content of the knee lavage.

[1] = Systemic markers for glucocorticoid exposure in normal rats; assay type: in vivo; conditions: normal female Lewis rats
Method: In order to evaluate markers of systemic dexamethasone exposure in normal rats, time points were selected to simulate drug administration for studies (e.g., dosing on days 10 and 11, euthanize on day 12 or dosing on days 11-14 and euthanize on day 14). […] Rats were euthanized 24 hours after the second dose, or 5 hours after the fourth dose. Body weight was measured daily. At euthanasia, liver, spleen, thymus, and kidney weights were recorded and blood was collected for CBC and serum chemistry analysis. To establish the CIA model, female Lewis rats were inoculated with an intradermal injection of bovine collagen II on day 0 and a challenge dose was administered on day 7. Ankle and knee joint diameters were measured daily. Rats were euthanized on day 10, day 12 and day 14 at which time liver, spleen, thymus, and kidney weights were recorded and blood was collected for complete blood count (CBC)/blood chemistry analysis.

CIA rats [2] = assay type: in vivo; conditions: 0.2 mg/kg on study day 0 and day 1
Method: A study was conducted in CIA rats to address the following: 1) functionality and duration of effect for peptide(SEQ ID NO: 105)-carbamate-Dex at 0.2 mg/kg as compared to Dex alone at the same dose; 2) functionality and duration of effect for peptide(SEQ ID NO: 105)-DMA-Dex at 0.05 mg/kg as compared to Dex alone at the same dose; 3) systemic markers of Dex exposure in rats treated with each PDC and Dex at their respective doses (FIG. 16B-FIG. 16G).
CIA was induced as described above in EXAMPLE 21. Rats were enrolled in the study following onset of arthritis in at least one ankle and randomly assigned into one of five treatment groups (vehicle; peptide-carbamate 0.2 mg/kg; Dex 0.2 mg/kg; peptide-DMA conjugate 0.05 mg/kg; Dex 0.05 mg/kg) with 5 rats per group. Treatment was administered on study day 0 and study day 1 and rats were euthanized on study day 7. The primary read-out in this cohort was change in ankle diameter during and after treatment, as a measure of functionality and duration of effect. […] The primary read-out for this cohort was measures of systemic exposure to Dex which included thymus weight, spleen weight, total white blood cell counts, lymphocyte counts, and change in body weight.

[3] = IL-1β challenge rat model, dose-ranging study: CBC, organ weights, tolerability; assay type: in vivo, rats
Method: IL-6 was measured in knee lavage fluid using a Luminex assay and levels were normalized to total protein in the lavage fluid (FIG. 24). Assessment of the PD inflammatory marker IL-6 in the knee joints of rats challenged with IL-1β was performed. Terminal synovial fluid was collected from all animals and analyzed by Luminex 200 for IL-6 cytokine concentrations using EMD Milliplex MAP Rat Cytokine/Chemokine Magnetic Panel ([…]-65K). […] Doses are listed as nmol/kg The masses of these doses are given below in TABLE 16. Two hours and forty-five minutes (i.e., 2.75 hrs) after administration of the test agents, animals were gently heated and blood was drawn from the tail vein for CBC analysis. Animals were then anesthetized with inhaled isoflurane and injected with 30 ng of IL-1β into the right knee (except for no IL-1β group). Four hours after administration of IL-1β (seven hours after administration of test agent) the animals were euthanized. Blood was drawn for a second CBC analysis and the right knee was lavaged for detection of IL-6 in the lavage fluid using a Luminex assay. Thymus and spleen were harvested and their organ weights determined.
In the same animals for which IL-6 secretion was measured, CBC data (e.g., lymphocyte counts) were also analyzed (FIG. 25) at an early time-point, 2.75 hrs post administration of the test article (FIG. 25A), and at euthanasia 7 hrs post administration (FIG. 25B). All treatments were administered as described above for the measurement of IL-6 secretion.
All treatments and test articles were administered as described above, except for an additional treatment group that received 510 nmol/kg of the peptide-drug conjugate peptide(SEQ ID NO: 105)-DMA-dCIC.

CIA rats [4] = tested on: CIA rats
Method: Arthritis was induced in 9-week-old female Lewis rats (Envigo or Charles River Laboratories) by intradermal injection while anesthetized of 400 ug bovine type II collagen (Chondrex Inc, Redmond Wash.) in 2 adjacent 200 ul (1 mg/ml) doses on day 0. Collagen is prepared for injection by dissolving at 2 mg/ml in 0.01N glacial acetic acid in sterile water and rocking at 4° C. overnight then emulsifying in Freund's incomplete adjuvant (IFA, Sigma Aldrich). To emulsify, equal volumes of collagen solution and IFA are drawn up into separate syringes, which are joined by a 3-way stopcock. While on ice, the collagen and IFA are mixed by pressing between the two syringes rapidly for 10 minutes. Quality of the emulsification is tested after 10 minutes of mixing by dropping a small amount of mixture in water. A properly emulsified solution will remain as a discrete droplet and not disperse in the water. On day 7, rats are challenged with a second intradermal injection of 100 ug of collagen in 100 ul, 1 mg/ml, collagen in IFA solution prepared fresh. Body weight and ankle diameter measurements are recorded daily from day 7 through the end of the study. Ankle diameter was measure by a single researcher using a Fowler Digitrix 2 micrometer. Three measurements of each ankle were taken of the lateral dimension at the tarsus of lightly anesthetized rats. The reported ankle diameter measurement is the mean of the three measurements.
Arthritis was induced as described in four cohorts of 9-week-old female Lewis rats. Rats were randomly placed in treatment groups, balancing compound and dose groups across cohorts. […] Rats were dosed by tail vein injection on days 11 and 12 and euthanized on day 13 by CO2 asphyxiation. Immediately after cessation of respiratory movement, blood was collected by cardiac puncture, synovial fluid was collected from both knees, one hind limb was fixed in formalin and the alternate ankle was frozen on dry ice. Thymus, spleen, liver, and kidney weights were recorded.
CIA Response study design.
The aim of the study was to test the 4 conjugates with various linkers at two different doses in vivo in CIA rats to assess the following: ability to deliver sufficient dexamethasone to the joint to show functionality and potential therapeutic effect in the disease model.
CIA was induced in female Lewis rats (as described above, see EXAMPLE 21). Body weight and ankle joint diameters were measured on day 0 and then daily from day 7 until euthanasia. […] At euthanasia, synovial fluid was collected from both knees, one hind limb was fixed in formalin and the alternate ankle was frozen on dry ice. Thymus, spleen, liver, and kidney weights were recorded. Blood samples were submitted for CBC/Chemistry analysis, and the remaining plasma was frozen.

[5] = 1 mg/kg/day for 2 days and 4 days
[6] = 1 mg/kg/day for 2 days or 4 days, vs vehicle and CIA rats

Dexamethasone sodium phosphate [DexSP]
IL-6 secretion in synovial fluid (IL-6; administered IA (co-injected with IL-1b)): no decrease | IL-6 secretion in synovial fluid (IL-6; administered IV): some decrease | other liver enzymes ([1]; 1 mg/kg/day): no significant changes | red blood cell (RBC) count, hematocrit, neutrophil, monocyte or eosinophil counts ([1]; 1 mg/kg/day): no significant changes | absolute lymphocyte count [1, 5]: decreased | total white blood cell (WBC) count [1, 5]: decreased | Body weight ([1]; 1 mg/kg/day for 2 days or 4 days): declined | spleen weight [1, 6]: significantly decreased | thymus weight [1, 6]: significantly decreased | Nucleated RBCs ([1]; 4 doses of 1 mg/kg/day): detected in four of the five rats | ankle inflammation / ankle diameter as compared to vehicle (CIA rats [2]): highly effective in reducing ankle diameter to baseline levels | monocytes (CBC) ([3]; 2.75 hours post-treatment): dose dependent decrease | Lymphocyte counts as compared to vehicle control ([3]; 2.75 hrs post administration, Dex both doses, dCIC IA or IV): substantial reduction in lymphocyte counts | Lymphocyte counts at euthanasia ([3]; 7 hours post administration, all dose levels): lower at 7 hours as compared to 2.75 hours | spleen weight (CIA rats [4]; 0.2 mg/kg and 0.5 mg/kg dose): reduction | thymus weight (CIA rats [4]; 0.2 mg/kg and 0.5 mg/kg dose): reduction | total body weight (CIA rats [4]; 0.2 mg/kg and 0.5 mg/kg dose): reduction | change in median ankle diameter between day 11 and day 13 as compared to vehicle (CIA rats [4]; 0.2 mg/kg dose): did not reach statistical significance | reduction in thymus weight as compared to vehicle (CIA rats [4]; 0.2 mg/kg dose groups): statistically significant
